From PubChem BioAssay AID256 (DTP/NCI, 2004)
“And” between values parts separate entries of the source, which are not always exact repeats. Equal entries are not always repeated. Toxic doses and inconclusive results are not listed. How the source made its calls: active means survival T/C of 150% or more; inactive means T/C below 125% in these data.

Test system: CD2F1 mice, L1210 leukemia ip, survival T/C
Experiment: NCI In Vivo Anticancer Drug Screen. Data for tumor model L1210 Leukemia (intraperitoneal) in CD2F1 (CDF1) mice
Conditions: higher = longer survival
Outline: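 Antitumor effect is scored in animals hosting a serially transplanted tumor. Values compare compound-dosed animals against vehicle-only controls as a simple quotient.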

[1] = endpoint: mean survival time, dose: 100.0 mg/kg/injection, schedule: Q01DX009 (ip), vehicle: saline with Tween-80
[2] = endpoint: mean survival time, dose: 100.0 mg/kg/injection, schedule: Q04DX002 (ip), vehicle: saline with Tween-80
[3] = endpoint: mean survival time, dose: 100.0 mg/kg/injection, schedule: Q04DX003 (ip), vehicle: saline with Tween-80
[4] = endpoint: mean survival time, dose: 200.0 mg/kg/injection, schedule: Q01DX009 (ip), vehicle: saline with Tween-80
[5] = endpoint: mean survival time, dose: 200.0 mg/kg/injection, schedule: Q04DX002 (ip), vehicle: saline with Tween-80
[6] = endpoint: mean survival time, dose: 200.0 mg/kg/injection, schedule: Q04DX003 (ip), vehicle: saline with Tween-80
[7] = endpoint: mean survival time, dose: 400.0 mg/kg/injection, schedule: Q04DX002 (ip), vehicle: saline with Tween-80
[8] = endpoint: mean survival time, dose: 400.0 mg/kg/injection, schedule: Q04DX003 (ip), vehicle: saline with Tween-80
[9] = endpoint: mean survival time, dose: 50.0 mg/kg/injection, schedule: Q01DX009 (ip), vehicle: saline with Tween-80
[10] = endpoint: mean survival time, dose: 25.0 mg/kg/injection, schedule: Q01DX009 (ip), vehicle: saline with Tween-80
[11] = endpoint: mean survival time, dose: 12.5 mg/kg/injection, schedule: Q01DX009 (ip), vehicle: saline with Tween-80
[12] = endpoint: mean survival time, dose: 25.0 mg/kg/injection, schedule: Q01DX009 (ip), vehicle: Klucel (hydroxypropylcellulose) (HPC)
[13] = endpoint: mean survival time, dose: 400.0 mg/kg/injection, schedule: Q01DX009 (ip), vehicle: saline with Tween-80

Measured: T/C

OC1C2COC(O2)C(O)C1O (configuration not stated) (tested in a mixture with another compound)
inactive: endpoint: mean survival time, dose: 100.0 mg/kg/injection, schedule: Q01DX009 (ip), vehicle: saline 93 % of control | endpoint: mean survival time, dose: 200.0 mg/kg/injection, schedule: Q01DX009 (ip), vehicle: saline 91 % of control | endpoint: mean survival time, dose: 400.0 mg/kg/injection, schedule: Q01DX009 (ip), vehicle: saline 91 % of control

COc1ccc2c(c1)C(=O)C(Br)CC2 (configuration not stated)
inactive: endpoint: mean survival time, dose: 100.0 mg/kg/injection, schedule: Q01DX001 (ip), vehicle: saline with Tween-80 101 % of control | [1] 98 % of control and 101 % of control | [2] 101 % of control and 102 % of control | [3] 108 % of control | endpoint: mean survival time, dose: 200.0 mg/kg/injection, schedule: Q01DX001 (ip), vehicle: saline with Tween-80 93 % of control | [4] 97 % of control and 98 % of control | [5] 100 % of control and 104 % of control | [6] 97 % of control | endpoint: mean survival time, dose: 400.0 mg/kg/injection, schedule: Q01DX001 (ip), vehicle: saline with Tween-80 95 % of control | [7] 103 % of control and 104 % of control | [8] 110 % of control

OC(c1ccccc1)(C1SCCCS1)C1SCCCS1
inactive: [9] 94 % of control | [1] 97 % of control | [4] 94 % of control

CC1(C)Oc2ccccc2O1
inactive: [10] 106 % of control | [9] 102 % of control | [1] 93 % of control

NC(=O)C(C(N)=O)c1ccnc2ccccc12
inactive: endpoint: mean survival time, dose: 6.25 mg/kg/injection, schedule: Q01DX001 (ip), vehicle: saline with Tween-80 102 % of control | endpoint: mean survival time, dose: 6.25 mg/kg/injection, schedule: Q01DX009 (ip), vehicle: saline with Tween-80 97 % of control | endpoint: mean survival time, dose: 12.5 mg/kg/injection, schedule: Q01DX001 (ip), vehicle: saline with Tween-80 103 % of control | [11] 93 % of control | endpoint: mean survival time, dose: 25.0 mg/kg/injection, schedule: Q01DX001 (ip), vehicle: saline with Tween-80 96 % of control | [10] 93 % of control

CCCCCCCCCSc1nc2ccccc2s1
inactive: [2] 87 % of control | [5] 97 % of control | [7] 93 % of control

CC12CCC(C/C1=N\O)C2(C)C (configuration not stated)
inactive: [11] 106 % of control | [10] 97 % of control | [9] 102 % of control

CCOC(=O)CCC(NC(=O)c1ccc(CN(C)Cc2cnc3nc(N)nc(N)c3n2)cc1)C(=O)OCC (configuration not stated)
inactive: endpoint: mean survival time, dose: 1.0 mg/kg/injection, schedule: Q01DX009 (ip), vehicle: Klucel (hydroxypropylcellulose) (HPC) 100 % of control | endpoint: mean survival time, dose: 10.0 mg/kg/injection, schedule: Q01DX009 (ip), vehicle: Klucel (hydroxypropylcellulose) (HPC) 108 % of control | [12] 115 % of control

O=c1sc2ccccc2n1CCSCCn1c(=S)sc2ccccc21
inactive: endpoint: mean survival time, dose: 100.0 mg/kg/injection, schedule: Q04DX003 (ip), vehicle: saline 93 % of control | endpoint: mean survival time, dose: 200.0 mg/kg/injection, schedule: Q04DX003 (ip), vehicle: saline 96 % of control | endpoint: mean survival time, dose: 400.0 mg/kg/injection, schedule: Q04DX003 (ip), vehicle: saline 96 % of control

COc1ccc(F)cc1NC(=O)OC(C)C
inactive: [1] 92 % of control | [4] 96 % of control | [13] 96 % of control

COC(=O)C1OC(Sc2ncnc3nc[nH]c23)C(O)C(O)C1O (configuration not stated)
inactive: endpoint: median survival time, dose: 25.0 mg/kg/injection, schedule: Q01DX005 (ip), vehicle: water 98 % of control | endpoint: median survival time, dose: 50.0 mg/kg/injection, schedule: Q01DX005 (ip), vehicle: water 109 % of control | endpoint: median survival time, dose: 100.0 mg/kg/injection, schedule: Q01DX005 (ip), vehicle: water 109 % of control | endpoint: median survival time, dose: 200.0 mg/kg/injection, schedule: Q01DX005 (ip), vehicle: water 113 % of control and 118 % of control | endpoint: median survival time, dose: 400.0 mg/kg/injection, schedule: Q01DX005 (ip), vehicle: water 119 % of control

c1ccc2[nH]c(C3CCCCN3)cc2c1 (configuration not stated)
inactive: endpoint: mean survival time, dose: 100.0 mg/kg/injection, schedule: Q01DX001 (ip), vehicle: saline 101 % of control | endpoint: mean survival time, dose: 200.0 mg/kg/injection, schedule: Q01DX001 (ip), vehicle: saline 96 % of control

CCCCN(CCCC)CCC(=O)OCC
inactive: [1] 101 % of control | [4] 95 % of control | [13] 112 % of control

COc1cc(C(=O)C=O)cc(OC)c1OC
inactive: [9] 103 % of control | [3] 109 % of control | [6] 110 % of control

CC1(C)CC(=O)C(CSC(=O)c2ccccc2)C(=O)C1
inactive: endpoint: mean survival time, dose: 3.12 mg/kg/injection, schedule: Q01DX009 (ip), vehicle: Klucel (hydroxypropylcellulose) (HPC) 96 % of control and 100 % of control | endpoint: mean survival time, dose: 6.25 mg/kg/injection, schedule: Q01DX009 (ip), vehicle: Klucel (hydroxypropylcellulose) (HPC) 101 % of control and 105 % of control | endpoint: mean survival time, dose: 12.5 mg/kg/injection, schedule: Q01DX009 (ip), vehicle: Klucel (hydroxypropylcellulose) (HPC) 103 % of control and 104 % of control | [12] 100 % of control and 105 % of control | endpoint: mean survival time, dose: 50.0 mg/kg/injection, schedule: Q01DX009 (ip), vehicle: Klucel (hydroxypropylcellulose) (HPC) 102 % of control and 106 % of control | endpoint: mean survival time, dose: 100.0 mg/kg/injection, schedule: Q01DX009 (ip), vehicle: Klucel (hydroxypropylcellulose) (HPC) 102 % of control

COc1ccc(OCCCn2cc(-c3ccc(Cl)c(Cl)c3)c(N)nc2=O)cc1
inactive: [3] 97 % of control | [6] 92 % of control | [8] 94 % of control

CCC1(c2ccccc2)C(=O)N(CBr)C(=O)N(CBr)C1=O
inactive: [11] 98 % of control | [10] 93 % of control | [9] 96 % of control

N#CCCC1(CCC#N)c2ccccc2-c2ccccc21
inactive: [3] 95 % of control | [6] 100 % of control | [8] 105 % of control

CCCOCCN=C(N)C(N)=NCCOCCC
inactive: endpoint: mean survival time, dose: 12.5 mg/kg/injection, schedule: Q04DX002 (ip), vehicle: saline with Tween-80 97 % of control | endpoint: mean survival time, dose: 25.0 mg/kg/injection, schedule: Q04DX002 (ip), vehicle: saline with Tween-80 89 % of control | endpoint: mean survival time, dose: 50.0 mg/kg/injection, schedule: Q04DX002 (ip), vehicle: saline with Tween-80 97 % of control

O=C(Nc1cccc(I)c1)OCCCl
inactive: [2] 89 % of control | [5] 92 % of control | [7] 92 % of control

O=C1CNC(=O)N1c1cccc(Cl)c1
inactive: [1] 96 % of control | [4] 92 % of control

CCOC(=O)c1nc(N)c2c(CC#N)nn(-c3ccccc3)c2n1
inactive: endpoint: mean survival time, dose: 12.5 mg/kg/injection, schedule: Q01DX005 (ip), vehicle: other 90 % of control | endpoint: mean survival time, dose: 25.0 mg/kg/injection, schedule: Q01DX005 (ip), vehicle: other 93 % of control | endpoint: mean survival time, dose: 50.0 mg/kg/injection, schedule: Q01DX005 (ip), vehicle: other 93 % of control | endpoint: mean survival time, dose: 100.0 mg/kg/injection, schedule: Q01DX005 (ip), vehicle: other 87 % of control | endpoint: mean survival time, dose: 200.0 mg/kg/injection, schedule: Q01DX005 (ip), vehicle: other 93 % of control

N#CCCCN=[N+]=[N-]
inactive: endpoint: mean survival time, dose: 75.0 mg/kg/injection, schedule: Q01DX001 (ip), vehicle: saline 96 % of control | endpoint: mean survival time, dose: 150.0 mg/kg/injection, schedule: Q01DX001 (ip), vehicle: saline 101 % of control

N#Cc1cc([N+](=O)[O-])ccc1Cl
inactive: [9] 96 % of control | [1] 91 % of control | [3] 105 % of control | [6] 103 % of control

Nc1nc(=O)n(C2OC(CO)C(O)C2O)c2sccc12 (configuration not stated)
inactive: endpoint: mean survival time, dose: 25.0 mg/kg/injection, schedule: Q01DX005 (ip), vehicle: water 94 % of control | endpoint: mean survival time, dose: 50.0 mg/kg/injection, schedule: Q01DX005 (ip), vehicle: water 94 % of control | endpoint: mean survival time, dose: 100.0 mg/kg/injection, schedule: Q01DX005 (ip), vehicle: water 89 % of control | endpoint: mean survival time, dose: 200.0 mg/kg/injection, schedule: Q01DX005 (ip), vehicle: water 89 % of control
